Measurements reported in the supplement of paper PMC10307832.

Columns and labels:
Experiment in all cases: relative viability (nuclei count vs DMSO), 5 days (fraction); higher = more cells survive
NCI-H647 = system: NCI-H647
Procedure, shortened: (§1)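 Five library-drug doses in √10 steps were combined with a fixed anchor-drug dose, or a single drug was given alone, by pin tool to lung cancer cell lines in 1536-well plates the day after seeding. Nuclei were stained and counted after 5 days. Relative viability is the nuclei count in treated wells over that in vehicle wells, taken as the median of duplicate plates.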

EKVX = system: EKVX
Procedure, shortened: as §1

HCC-15 = system: HCC-15
Procedure, shortened: as §1

NCI-H522 = system: NCI-H522
Procedure, shortened: as §1

HCC-366 = system: HCC-366
Procedure, shortened: as §1

201T = system: 201T
Procedure, shortened: as §1

NCI-H661 = system: NCI-H661
Procedure, shortened: as §1

A-427 = system: A-427
Procedure, shortened: as §1

NCI-H460 = system: NCI-H460
Procedure, shortened: as §1

BEN = system: BEN
Procedure, shortened: as §1

SK-MES-1 = system: SK-MES-1
Procedure, shortened: as §1

`CCNC(=O)c1noc(-c2cc(C(C)C)c(O)cc2O)c1-c1ccc(CN2CCOCC2)cc1` [Luminespib] + Nc1ncn([C@H]2C[C@H](O)[C@@H](CO)O2)c(=O)n1 [Decitabine] (partner 2 µM) was tested, and the relative viability (NCI-H647; first compound 0.006325 µM) was 0.484, the relative viability (NCI-H647; first compound 0.02 µM) was 0.18 and the relative viability (NCI-H647; first compound 0.06325 µM) was 0.0995. It also gave a relative viability (NCI-H647; first compound 0.2 µM) of 0.124, a relative viability (EKVX; first compound 0.002 µM) of 0.38 and a relative viability (EKVX; first compound 0.006325 µM) of 0.31. For the same molecule, the relative viability (EKVX; first compound 0.02 µM) was 0.273, the relative viability (EKVX; first compound 0.06325 µM) was 0.253 and the relative viability (EKVX; first compound 0.2 µM) was 0.173. For the same molecule, the relative viability (HCC-15; first compound 0.002 µM) was 0.695, the relative viability (HCC-15; first compound 0.006325 µM) was 0.565 and the relative viability (HCC-15; first compound 0.02 µM) was 0.73. The relative viability (HCC-15; first compound 0.06325 µM) was 0.144, the relative viability (HCC-15; first compound 0.2 µM) was 0.14 and the relative viability (NCI-H522; first compound 0.002 µM) was 0.626. The relative viability (NCI-H522; first compound 0.006325 µM) was 0.631, the relative viability (NCI-H522; first compound 0.02 µM) was 0.593 and the relative viability (NCI-H522; first compound 0.06325 µM) was 0.6. It also gave a relative viability (NCI-H522; first compound 0.2 µM) of 0.451, a relative viability (HCC-366; first compound 0.002 µM) of 0.327 and a relative viability (HCC-366; first compound 0.006325 µM) of 0.359. It also gave a relative viability (HCC-366; first compound 0.02 µM) of 0.31, a relative viability (HCC-366; first compound 0.06325 µM) of 0.0527 and a relative viability (HCC-366; first compound 0.2 µM) of 0.038. It also gave a relative viability (201T; first compound 0.002 µM) of 0.832, a relative viability (201T; first compound 0.006325 µM) of 0.867 and a relative viability (201T; first compound 0.02 µM) of 0.844. The relative viability (201T; first compound 0.06325 µM) was 0.811, the relative viability (201T; first compound 0.2 µM) was 0.827 and the relative viability (NCI-H661; first compound 0.002 µM) was 0.554. For the same molecule, the relative viability (NCI-H661; first compound 0.006325 µM) was 0.544, the relative viability (NCI-H661; first compound 0.02 µM) was 0.454 and the relative viability (NCI-H661; first compound 0.06325 µM) was 0.315. It also gave a relative viability (NCI-H661; first compound 0.2 µM) of 0.309, a relative viability (A-427; first compound 0.002 µM) of 0.611 and a relative viability (A-427; first compound 0.006325 µM) of 0.514. For the same molecule, the relative viability (A-427; first compound 0.02 µM) was 0.446, the relative viability (A-427; first compound 0.06325 µM) was 0.599 and the relative viability (A-427; first compound 0.2 µM) was 0.269. For the same molecule, the relative viability (NCI-H460; first compound 0.002 µM) was 0.473, the relative viability (NCI-H460; first compound 0.006325 µM) was 0.432 and the relative viability (NCI-H460; first compound 0.02 µM) was 0.0674. For the same molecule, the relative viability (NCI-H460; first compound 0.06325 µM) was 0.0264, the relative viability (NCI-H460; first compound 0.2 µM) was 0.0329 and the relative viability (BEN; first compound 0.002 µM) was 0.84. It also gave a relative viability (BEN; first compound 0.006325 µM) of 0.644, a relative viability (BEN; first compound 0.02 µM) of 0.458 and a relative viability (BEN; first compound 0.06325 µM) of 0.306. It also gave a relative viability (BEN; first compound 0.2 µM) of 0.294, a relative viability (SK-MES-1; first compound 0.002 µM) of 0.392 and a relative viability (SK-MES-1; first compound 0.006325 µM) of 0.385. It also gave a relative viability (SK-MES-1; first compound 0.02 µM) of 0.213, a relative viability (SK-MES-1; first compound 0.06325 µM) of 0.146 and a relative viability (SK-MES-1; first compound 0.2 µM) of 0.147.
